“And” between values parts separate entries of the source, which are not always exact repeats. Identical values can stand only once. Like-named read-outs stand apart in the source and are kept apart here.
Legend:
[1] = target: T1, H+,K+-ATPase (Sus scrofa, UniProt P19156); assay: Dose-dependent inhibition of H+,K+-ATPase activity, membrane fractions; conditions: for H+,K+-ATPase activity, raw data of dose-dependent inhibition: single replicate values
[2] = target: T1, H+,K+-ATPase; assay: K+-dependent ATPase assay, double reciprocal plot and Ki estimation; type: biochemical, pig; parameters: H^+,K^+-ATPase-enriched membrane fractions were purified from pig stomach; from tissue; host or cells: pig stomach (gastric membrane fractions); reciprocal K+-stimulated ATPase activity, Lineweaver-Burk raw data: unit not given here; conditions: for reciprocal K+-stimulated ATPase activity, Lineweaver-Burk raw data: replicate values
Source text: Data measured from 96-well plate contained triplicates of four different sets of K^+-dependent ATPase assays in the absence or presence of three different concentrations of synthesized compounds. Data were corrected for background values in the absence of K^+ at each compound concentration, and plot them against the double reciprocal axes in Supplementary Fig. 5. Data were also fitted by using simultaneous nonlinear regression as described previously to estimate their Ki values.

[3] = target: H+,K+-ATPase; parameters: method as in PMID 2837231; conditions: cited from earlier work
[4] = test system: H+,K+-ATPase; parameters: method as in PMID 35604136, PMID 28747707; conditions: cited from earlier work

T1 sequence (P19156 2-1034 limits assumed): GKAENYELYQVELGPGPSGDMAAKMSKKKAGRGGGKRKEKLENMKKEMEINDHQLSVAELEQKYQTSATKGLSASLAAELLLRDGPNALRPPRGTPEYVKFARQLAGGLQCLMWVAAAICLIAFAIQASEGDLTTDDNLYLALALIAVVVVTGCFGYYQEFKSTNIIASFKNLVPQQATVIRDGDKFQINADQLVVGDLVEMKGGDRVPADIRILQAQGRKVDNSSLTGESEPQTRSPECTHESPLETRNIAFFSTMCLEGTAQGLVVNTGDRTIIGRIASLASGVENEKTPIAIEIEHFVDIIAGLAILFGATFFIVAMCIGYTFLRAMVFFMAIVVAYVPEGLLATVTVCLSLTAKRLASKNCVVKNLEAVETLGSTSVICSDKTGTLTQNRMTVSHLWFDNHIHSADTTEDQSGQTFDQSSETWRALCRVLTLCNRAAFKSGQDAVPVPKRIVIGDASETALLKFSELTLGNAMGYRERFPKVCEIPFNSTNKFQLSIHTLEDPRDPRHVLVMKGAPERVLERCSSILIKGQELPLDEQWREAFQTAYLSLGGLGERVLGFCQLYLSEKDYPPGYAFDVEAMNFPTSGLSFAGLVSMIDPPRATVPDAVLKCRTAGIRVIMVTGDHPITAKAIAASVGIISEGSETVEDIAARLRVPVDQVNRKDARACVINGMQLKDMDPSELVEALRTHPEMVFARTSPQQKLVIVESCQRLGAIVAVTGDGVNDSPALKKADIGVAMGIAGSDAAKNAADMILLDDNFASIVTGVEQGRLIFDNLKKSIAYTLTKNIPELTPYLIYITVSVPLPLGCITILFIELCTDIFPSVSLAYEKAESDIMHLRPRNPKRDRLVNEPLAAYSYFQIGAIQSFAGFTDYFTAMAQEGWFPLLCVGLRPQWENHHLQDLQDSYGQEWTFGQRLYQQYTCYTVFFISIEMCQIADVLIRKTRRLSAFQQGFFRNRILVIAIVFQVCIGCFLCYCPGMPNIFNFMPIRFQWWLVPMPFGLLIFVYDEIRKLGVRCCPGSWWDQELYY
T1 sequence (P18434 whole entry partner): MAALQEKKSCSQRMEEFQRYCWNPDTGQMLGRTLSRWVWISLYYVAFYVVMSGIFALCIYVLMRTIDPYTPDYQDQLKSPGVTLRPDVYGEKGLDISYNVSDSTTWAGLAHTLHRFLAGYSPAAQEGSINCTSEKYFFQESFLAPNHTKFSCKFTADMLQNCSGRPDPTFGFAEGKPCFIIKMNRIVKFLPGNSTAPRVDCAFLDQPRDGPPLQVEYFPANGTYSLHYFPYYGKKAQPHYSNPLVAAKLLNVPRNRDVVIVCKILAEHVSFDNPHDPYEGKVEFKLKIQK

Structure (SMILES): CNCc1ccc(OCc2ccccc2OCc2ccccc2)cc1 [DQ-06]
- IC50 [1]: 700 ± 40 nM
- H+,K+-ATPase activity, raw data of dose-dependent inhibition ([1]; [PCAB] -3.30103 (log, unit not given)): 0.01 and -0.01 and 0.22 and -0.22 and -0.74 and -0.4
- H+,K+-ATPase activity, raw data of dose-dependent inhibition ([1]; [PCAB] -3.52288 (log, unit not given)): 1.74 and 1.71 and 2.79 and 2.38 and 1.76 and 2.41
- H+,K+-ATPase activity, raw data of dose-dependent inhibition ([1]; [PCAB] -4 (log, unit not given)): 5.02 and 5.03 and 3.19 and 3.1 and 2.85 and 2.51
- H+,K+-ATPase activity, raw data of dose-dependent inhibition ([1]; [PCAB] -4.30103 (log, unit not given)): 5.51 and 5.6 (2×) and 5.65 and 5.75 and 5.83
- H+,K+-ATPase activity, raw data of dose-dependent inhibition ([1]; [PCAB] -4.52288 (log, unit not given)): 5.58 and 6.16 and 6.26 and 6.39 and 7.23 and 7.48
- H+,K+-ATPase activity, raw data of dose-dependent inhibition ([1]; [PCAB] -5 (log, unit not given)): 9.37 and 9.6 and 11.28 and 10.91 and 10.15 and 11.11
- H+,K+-ATPase activity, raw data of dose-dependent inhibition ([1]; [PCAB] -5.52288 (log, unit not given)): 20.15 and 21.1 and 19.71 and 21.04 and 20.73 and 20.63
- H+,K+-ATPase activity, raw data of dose-dependent inhibition ([1]; [PCAB] -6 (log, unit not given)): 39.09 and 39.39 and 38.28 and 36.79 and 38.33 and 39.14
- H+,K+-ATPase activity, raw data of dose-dependent inhibition ([1]; [PCAB] -6.30103 (log, unit not given)): 57.6 and 58.17 and 57.79 and 57.15 and 58.12 and 57.53
- H+,K+-ATPase activity, raw data of dose-dependent inhibition ([1]; [PCAB] -7 (log, unit not given)): 90.69 and 91.88 and 87.97 and 84.74 and 90.82 and 88.26
- H+,K+-ATPase activity, raw data of dose-dependent inhibition ([1]; [PCAB] -8 (log, unit not given)): 101.14 and 100.91 and 95.09 and 94.94 and 96.97 and 96.94
- H+,K+-ATPase activity, raw data of dose-dependent inhibition ([1]; [PCAB] -11 (log, unit not given; possibly placeholder for no compound)): 102.84 and 103.26 and 99.81 and 97.12 and 97.38 and 101.76
- Ki ([2]; K+-competitive inhibition, read-out: Ki): 93.8 nM
- reciprocal K+-stimulated ATPase activity, Lineweaver-Burk raw data ([2]; compound concentration 50, 1/KCl 0.05 (units not given)): 0.0059 and 0.0057 and 0.006
- reciprocal K+-stimulated ATPase activity, Lineweaver-Burk raw data ([2]; compound concentration 50, 1/KCl 0.1 (units not given)): 0.0075 and 0.0077 and 0.0078
- reciprocal K+-stimulated ATPase activity, Lineweaver-Burk raw data ([2]; compound concentration 50, 1/KCl 0.125 (units not given)): 0.0067 and 0.0066 and 0.007
- reciprocal K+-stimulated ATPase activity, Lineweaver-Burk raw data ([2]; compound concentration 50, 1/KCl 0.2 (units not given)): 0.0088 and 0.0086 and 0.0089
- reciprocal K+-stimulated ATPase activity, Lineweaver-Burk raw data ([2]; compound concentration 50, 1/KCl 0.5 (units not given)): 0.0111 and 0.011 and 0.0112
- reciprocal K+-stimulated ATPase activity, Lineweaver-Burk raw data ([2]; compound concentration 50, 1/KCl 1 (units not given)): 0.0282 and 0.0275 and 0.0291
- reciprocal K+-stimulated ATPase activity, Lineweaver-Burk raw data ([2]; compound concentration 50, 1/KCl 2 (units not given)): 0.035 and 0.034 and 0.0286
- reciprocal K+-stimulated ATPase activity, Lineweaver-Burk raw data ([2]; compound concentration 100, 1/KCl 0.05 (units not given)): 0.0066 and 0.0063 and 0.0065
- reciprocal K+-stimulated ATPase activity, Lineweaver-Burk raw data ([2]; compound concentration 100, 1/KCl 0.1 (units not given)): 0.0087 and 0.0094 and 0.0098
- reciprocal K+-stimulated ATPase activity, Lineweaver-Burk raw data ([2]; compound concentration 100, 1/KCl 0.125 (units not given)): 0.0086 and 0.0083 and 0.0082
- reciprocal K+-stimulated ATPase activity, Lineweaver-Burk raw data ([2]; compound concentration 100, 1/KCl 0.2 (units not given)): 0.011 and 0.0106 and 0.0113
- reciprocal K+-stimulated ATPase activity, Lineweaver-Burk raw data ([2]; compound concentration 100, 1/KCl 0.5 (units not given)): 0.0167 and 0.0156 and 0.0168
- reciprocal K+-stimulated ATPase activity, Lineweaver-Burk raw data ([2]; compound concentration 100, 1/KCl 1 (units not given)): 0.0412 and 0.0415 and 0.043
- reciprocal K+-stimulated ATPase activity, Lineweaver-Burk raw data ([2]; compound concentration 100, 1/KCl 2 (units not given)): 0.056 and 0.0496 and 0.0604
- reciprocal K+-stimulated ATPase activity, Lineweaver-Burk raw data ([2]; compound concentration 400, 1/KCl 0.05 (units not given)): 0.0084 and 0.0076 and 0.008
- reciprocal K+-stimulated ATPase activity, Lineweaver-Burk raw data ([2]; compound concentration 400, 1/KCl 0.1 (units not given)): 0.0109 and 0.0112 and 0.011
- reciprocal K+-stimulated ATPase activity, Lineweaver-Burk raw data ([2]; compound concentration 400, 1/KCl 0.125 (units not given)): 0.0123 and 0.011 and 0.0111
- reciprocal K+-stimulated ATPase activity, Lineweaver-Burk raw data ([2]; compound concentration 400, 1/KCl 0.2 (units not given)): 0.0153 and 0.0154 and 0.0157
- reciprocal K+-stimulated ATPase activity, Lineweaver-Burk raw data ([2]; compound concentration 400, 1/KCl 0.5 (units not given)): 0.0261 and 0.0253 and 0.0282
- reciprocal K+-stimulated ATPase activity, Lineweaver-Burk raw data ([2]; compound concentration 400, 1/KCl 1 (units not given)): 0.069 and 0.0649 and 0.0653
- reciprocal K+-stimulated ATPase activity, Lineweaver-Burk raw data ([2]; compound concentration 400, 1/KCl 2 (units not given)): 0.097 and 0.0973 and 0.106
- inhibition mode ([2]; double reciprocal plot, versus K+): purely competitive with K^+

Structure (SMILES): Cc1nc2c(OCc3ccccc3)cccn2c1CC#N [SCH28080]
- Ki ([3]; pH 6.11): 20 nM
- Ki ([3]; pH 7.35): 66 nM

Structure (SMILES): COCCO[C@@H]1c2ccn3c(C)c(C)nc3c2N[C@H](c2ccccc2)[C@H]1O [soraprazan]
- times higher apparent affinity than SCH28080 [4]: > 7 times
